# Patent publication US20250281929A1, “MICROFLUIDIC DEVICE AND USES THEREOF” (CASE WESTERN RESERVE UNIVERSITY, priority 2020, published 2025)
# Assays:
# healthy RBCs = experiment: microfluidic assay of RBC mediated microvascular occlusion (micropillar arrays with integrated electrical impedance measurement); assay type: cell-based, human; settings: RBCs stiffened with 0.08% w/v glutaraldehyde 10 min, 20% hematocrit, mean±SD, N=4; for RBC Electrical Impedance Index (REI): impedance at 10 kHz
# Protocol: In order to validate the microfluidic device functionality of assessing RBC mediated microvascular occlusion, healthy RBCs were isolated and treated with 0.08% w/v glutaraldehyde (Sigma Aldrich) for 10 min at room temperature. The glutaraldehyde-stiffened RBCs were then washed with PBS, mixed with untreated healthy RBCs from the same donor at either 1% or 2% v/v ratio, and re-suspended in PBS at 20% hematocrit for testing. Healthy RBCs from the same healthy donor were included in the study design as control.
# Microchannels were initially washed with absolute ethanol (100%) and PBS, which was followed by incubation with 2% bovine serum albumin (BSA) overnight to prevent non-specific binding of RBCs to the channel walls. A Flow-EZ™ microfluidic flow control system (Fluigent, Lowell, MA) was used to regulate the flow (FIG. 12). An impedance analyzer (Agilent 4294A, Santa Clara, CA) coupled with a custom printed-circuit board was used to perform electrical impedance measurements. Briefly, impedance magnitude across each of the 3-μm to 10-μm micropillar arrays was recorded over the frequency range of 40 Hz-1 MHz before introducing blood into the microchannel and after completing the washing step. […]
# Prior to the experiment, PBS was perfused through the microchannel at 100 mBar for 15 min to allow for any volumetric changes of the microchannel. Thereafter, the baseline impedance reading was obtained for each micropillar array without stopping the PBS flow. […] A second impedance reading was then obtained for each micropillar array upon the conclusion of the post-perfusion wash step. […] For select experiments, the electrical impedance of the 3-μm micropillar array was continuously monitored over the entire duration of the experiment.
# To determine the association between the electrical impedance change and microcapillary occlusion in the microchannel, an Olympus IX83 inverted motorized microscope with Olympus CellSense live-cell imaging and analysis software were used to obtain high-resolution microscopic images. The images were further processed by Adobe Photoshop software (San Jose, CA), in which the obstructed microcapillaries were manually counted. […]
# [formula] [formula] • where, • n=Total number of capillary networks within the area of interest • i=The i^th capillary network within the area of interest • Oi; =The number of microcapillary occlusion in the i^th capillary network • Ni=Total number of microcapillaries in the i^th capillary network • Ii1=The first electrical impedance reading of the i^th capillary network • Ii2=The second electrical impedance reading of the i^th capillary network […]
# RBC = experiment: MIRCA functional assay of RBC deformability, quantitative microcapillary occlusion (Occlusion Index); assay type: cell-based, human; settings: people with variant SCD (HbSC) and SCA (HbSS)
# From the text: Abnormal RBC deformability contributes to the underlying pathophysiology of SCD, and we tested this in variant SCD and sickle cell trait (SCT). We have developed MIRCA, a novel functional assay of RBC deformability, assessed by quantitative microcapillary occlusion (‘Occlusion Index, OI’, FIG. 18). This in vitro test recapitulates key geometric features of the capillary bed: >80,000 narrow openings and side anastomoses ‘on-a-chip’, under normoxia or hypoxia (FIG. 18).
# [1] = sample 98% healthy RBCs and 2% stiff RBCs
# [2] = sample 99% healthy RBCs and 1% stiff RBCs
Compound,RBC Electrical Impedance Index (REI) (healthy RBCs; [1]),RBC Occlusion Index (ROI) (healthy RBCs; [1]),RBC Electrical Impedance Index (REI) (healthy RBCs; [2]),RBC Occlusion Index (ROI) (healthy RBCs; [2]),association of RBC Occlusion Index (OI) with drug use (RBC)
O=CCCCC=O [glutaraldehyde],20.99%,36.16%,9.40%,17.15%,
NC(=O)NO [hydroxyurea],,,,,inversely associated
